Here are results for 10 compounds from US8975250B2, “5 oxo-5,8-dihydropyrido[2,3-d]pyrimidine derivatives as CaMKII kinase inhibitors for treating cardiovascular diseases” (SANOFI, priority 2010, dated 2015).

Usually IC50 stands for the concentration at which inhibition is half-maximal.

The assay has as its target CaMKIIδ (Homo sapiens (Human), UniProt Q13557). Kind of assay: radioactive test on the recombinant CaMKIIδ enzyme (ATP-γ33P incorporation into Autocamtide-2). Type of assay: biochemical. As to conditions: recombinant CaMKIIδ 0.37 nM, 10 μM ATP, 100 μM Autocamtide-2, two hours at 37°C. The procedure: The compounds according to the invention were tested in vitro for their capacity to inhibit the kinase function of calcium/calmodulin-dependent protein kinase II delta (CaMKIIδ). CaMKIIδis an intracellular serine/threonine kinase. It has an enzymatic domain that is capable of using ATP to autophosphorylate. Its kinase function allows it to use ATP to phosphorylate its substrates on the serines and/or threonines. Several enzymatic and cellular tests are used to evaluate the activity of the products with respect to the kinase function of CaMKIIδ. The kinase activity of CaMKIIδis evaluated by means of a radioactive test on the recombinant CaMKIIδenzyme. The amount of ATP-γ33P incorporated into the specific substrate Autocamtide-2 during its phosphorylation by CaMKIIδis measured. The effect of the products is quantified by the concentration of product that inhibits the total activity of CaMKIIδby 50% (50% inhibitory concentration=IC50). For the determination of the IC50 values, the product is diluted in 100% of DMSO to obtain a 10 mM stock solution. The concentration range tested during the radioactive test ranges from 3 to 10 000 nM with a final concentration in the test of 1% DMSO. This concentration range may, for the most powerful compounds, be extended to 0.1 nM. On the day of the operation, 5 μl of the compounds are deposited in each well of a 96-well plate at 10 times the concentration of that to be tested. Each concentration is tested in duplicate on the same plate. The negative controls (0% activity) and positive controls (100% activity) receive 5 μL of 10% DMSO solution. A reaction premix containing the 1×kinase buffer and an ATP-MgCl2 mixture is prepared. Extemporaneously, a mixture containing the substrate Autocamtide-2 (100 μM) with calmodulin and calcium, and the solution of enzyme CaMKIIδ, is added to the premix. 45 μL of this mixture are immediately deposited per well. The final concentrations in the 50 μL final volume are as follows: compound 1X, 0.37 nM of CaMKIIδ(Invitrogen reference PV3373), 10 μM of ATP (1 μCi per well), 100 μM of Autocamtide-2, […] of calmodulin, 15 mM MgCl2, 400 μM CaCl2, 10 mM β-glycerophosphate, and 1% of DMSO. Two negative controls are prepared on each plate, a first without enzyme CaMKIIδ, and a second without substrate Autocamtide-2; these two elements are replaced with water. The plate is then incubated for two hours at 37°C. with gentle shaking. The reaction is stopped by adding 20 μL per well of H3PO4 solution. The 50 μL of each well are transferred onto a Whatman P81 filter. After rinsing twice with H3PO4 (150 μl/well per wash), followed by two rinses with 150 μL of H2O, 50 μL of scintillant are added per well. The amount of phosphorylated substrate is detected by means of a liquid scintillation counter. The inhibitory activity toward CaMKIIδis given by the concentration that inhibits 50% of the activity of CaMKIIδ. The IC50 values are generally between 10 μM and 10^−5 μM. In the table below, the IC50 values measured for several compounds (I) of the invention are presented as examples.
As for `CCn1c(N)c(C(N)=O)c(=O)c2cnc(Nc3ccc(C(=O)N4CCN(C)CC4)cc3)nc21` [compound 4, 7-Amino-8-ethyl-2-[4-(4-methylpiperazine-1-carbonyl)phenylamino]-5-oxo-5,8-dihydropyrido[2,3-d]pyrimidine-6-carboxamide], the half-maximal inhibitory concentration (IC50) stood at 260 nM.

For `CCn1c(N)c(C(N)=O)c(=O)c2cnc(Nc3ccc(C4CCN(C5CC5)CC4)cc3OC)nc21` [compound 29, 7-Amino-2-[4-(1-cyclopropylpiperid-4-yl)-2-methoxyphenylamino]-8-ethyl-5-oxo-5,8-dihydropyrido[2,3-d]pyrimidine-6-carboxamide], the concentration for half-maximal inhibition (IC50) was 17 nM.

In the case of `CCn1c(N)c(C(N)=O)c(=O)c2cnc(Nc3ccc(C4CCN(CCC(F)(F)F)CC4)cc3OC)nc21` [compound 35, 7-Amino-8-ethyl-2-{2-methoxy-4-[1-(3,3,3-trifluoropropyl)piperid-4-yl]phenylamino}-5-oxo-5,8-dihydropyrido[2,3-d]pyrimidine-6-carboxamide], the IC50 was determined as 22 nM.

`CC(C)Cn1c(N)c(C(N)=O)c(=O)c2cnc(Nc3ccc(CCN4CCOCC4)cc3)nc21` [compound 52, 7-Amino-8-isobutyl-2-[4-(2-morpholin-4-ylethyl)phenylamino]-5-oxo-5,8-dihydropyrido[2,3-d]pyrimidine-6-carboxamide]: the IC50 was determined as 139 nM.

With `CN(C)Cc1ccc(Nc2ncc3c(=O)c(C(N)=O)c(N)n(CC(F)(F)F)c3n2)cc1` [compound 60, 7-Amino-2-(4-dimethylaminomethylphenylamino)-5-oxo-8-(2,2,2-trifluoroethyl)-5,8-dihydropyrido[2,3-d]pyrimidine-6-carboxamide], the IC50 came to 663 nM.

As for `CCn1c(N)c(C(N)=O)c(=O)c2cnc(Nc3ccc(N4CCC(N5CCCC5)CC4)c(Cl)c3)nc21` [compound 61, 7-Amino-2-[3-chloro-4-(4-pyrrolidin-1-ylpiperid-1-yl)phenylamino]-8-ethyl-5-oxo-5,8-dihydropyrido[2,3-d]pyrimidine-6-carboxamide], the IC50 came out at 8 nM.

Consider `CCn1c(N)c(C(N)=O)c(=O)c2cnc(Nc3ccc4c(c3)CCNC4)nc21` [compound 75, 7-Amino-8-ethyl-5-oxo-2-(1,2,3,4-tetrahydroisoquinolin-6-ylamino)-5,8-dihydropyrido[2,3-d]pyrimidine-6-carboxamide], for which the IC50 was 37 nM.

Consider `CCn1c(N)c(C(N)=O)c(=O)c2cnc(Nc3ccc(OC4CCN(C)CC4)cc3)nc21` [compound 76, 7-Amino-8-ethyl-2-[4-(1-methylpiperid-4-yloxy)phenylamino]-5-oxo-5,8-dihydropyrido[2,3-d]pyrimidine-6-carboxamide], for which the IC50 is 118 nM.

On to `CCn1c(N)c(C(N)=O)c(=O)c2cnc(Nc3cccc(CN(C)C)c3)nc21` [compound 78, 7-Amino-2-(3-dimethylaminomethylphenylamino)-8-ethyl-5-oxo-5,8-dihydropyrido[2,3-d]pyrimidine-6-carboxamide], for which the concentration for half-maximal inhibition (IC50) turned out to be 268 nM.

`CCc1cc(N2CCN(C3CC3)CC2)ccc1Nc1ncc2c(=O)c(C(N)=O)c(N)n(CC)c2n1` [compound 96, 7-Amino-2-[4-(4-cyclopropylpiperazin-1-yl)-2-ethylphenylamino]-8-ethyl-5-oxo-5,8-dihydropyrido[2,3-d]pyrimidine-6-carboxamide]: the IC50 came to 396 nM.
